Patent publication US8623862B2, “Derivatives of N-[(1H-pyrazol-1-yl)aryl]-1H-indole or 1H-indazole-3-carboxamide, preparation thereof and applications thereof in therapeutics” (Sanofi, priority 2011, dated 2014)
Structures can show the parent of a compound that is named as a salt. Where two headings read alike, the source gives them in different places.

Key:
platelet aggregation [1] = assay: Inhibition of platelet aggregation in vitro (rat blood); type: cell-based;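 as to Inhibition of platelet aggregation in vitro (rat blood) in μM: aggregation induced by ADP added as 4 µL of a 250 µM solution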
Summary of the method: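 Platelet-rich plasma from male Sprague-Dawley rats (250-300 g), prepared by centrifugation at 300 g for 5 minutes. Aggregation measured at 37° C in an aggregometer. Percentage inhibition derived from area under the absorbance curve over 6 minutes.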

platelet aggregation [2] = assay: Inhibition of platelet aggregation ex vivo (rat blood); type: in vivo; conditions: for inhibition at 10 mg/kg: read-out: Inhibition of platelet aggregation ex vivo (rat blood) in %, Gavage (oral) 10 mg/kg
Method: Inhibition of Platelet Aggregation Ex Vivo (Rat Blood)
Male rats of the Sprague-Dawley strain, weighing 250-300 g, are used at a rate of 6 animals per batch. Each test compound is diluted in a solution of glucose-containing water (glucose 5%) containing 5% of cremophore and 3% of glycofurol.
The compounds according to the invention are administered by stomach tube (10 ml/kg at 1 mg/ml) two hours before taking the sample or by infusion (1 ml/kg at 10 mg/ml) two hours before taking the sample.
The platelet-rich plasma (PRP) is obtained by centrifugation of the blood at 300 g for 5 minutes, and the measurements of platelet aggregation are performed as described above.
The results are calculated using the area under the curve of absorbance measured for 6 minutes, and expressed as percentage (%) of inhibition.

[3] = Rattus norvegicus, Platelet, 0.1 h, read-out: Inhibition of platelet aggregation in vitro (rat blood) in μM
[4] = rat blood, in vitro, read-out: Inhibition of platelet aggregation in vitro (rat blood);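 as to Inhibition of platelet aggregation in vitro (rat blood) in μM: aggregation induced by ADP added as 4 µL of a 250 µM solution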
[5] = rat, gavage (oral), 10 mg/kg, two hours before taking the sample
[6] = rat platelet-rich plasma, ADP-induced aggregation, area under the curve of absorbance for 6 minutes, read-out: Inhibition of platelet aggregation in vitro (rat blood);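 as to Inhibition of platelet aggregation in vitro (rat blood) in μM: aggregation induced by ADP added as 4 µL of a 250 µM solution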

IC50 (platelet aggregation [1]; [4]) | SMILES | IC50 (platelet aggregation [1]; [6]) | also measured
0.15 µM | CCCC(=O)c1cnn(-c2ccc(NC(=O)c3cn(CC(=O)N4CCN(CC(=O)N(C)C)CC4)c4ccc(Cl)cc34)cc2)c1C [Compound 154] |  | 
0.36 µM | CCCC(=O)c1cnn(-c2ccc(NC(=O)c3cn(CC(=O)N4CCN(C)CC4)c4ccc(C(F)(F)F)cc34)cc2)c1C [Compound 203] |  | 
0.27 µM | CCCC(=O)c1cnn(-c2ccc(NC(=O)c3cn(CC(=O)N4CC5CCC(C4)N5C)c4ccc(Cl)cc34)cc2)c1C [Compound 192] |  | 
0.1 µM | CCCC(=O)c1cnn(-c2ccc(NC(=O)c3cn(CC(=O)N4CCN(CCO)CC4)c4ccc(Cl)cc34)cc2)c1C [Compound 146] |  | 
0.26 µM | CCCC(=O)c1cnn(-c2ccc(NC(=O)c3cn(CC(=O)N4CCN(CC(=O)OCC)CC4)c4ccc(Cl)cc34)cc2)c1C [Compound 155] |  | 
0.35 µM | CCCC(=O)c1cnn(-c2ccc(NC(=O)c3cn(CC(=O)N4CCN5CCCC5C4)c4ccc(C)cc34)cc2)c1C (stereo not shown) [Compound 123] |  | 
0.56 µM | CCOC(=O)c1cnn(-c2ccc(NC(=O)c3cn(CC(=O)N4CCN(C)CC4)c4ccc(Cl)cc34)cc2)c1C [Compound 218] |  | 
0.27 µM | CCCC(=O)c1cnn(-c2ccc(NC(=O)c3cn(CC(=O)N4CCN(CC(N)=O)CC4)c4ccc(Cl)cc34)cc2)c1C [Compound 199] |  | 
0.73 µM | CC(=O)c1cnn(-c2ccc(NC(=O)c3cn(CC(=O)N4CCN(C)CC4)c4ccc(Cl)cc34)cc2)c1C [Compound 216] |  | 
0.17 µM | CCCC(=O)c1cnn(-c2ccc(NC(=O)c3cn(CC(=O)N4CCN(C)C(=O)C4)c4ccc(Cl)cc34)cc2)c1C [Compound 184] |  | 
0.16 µM | CCCC(=O)c1cnn(-c2ccc(NC(=O)c3cn(CC(=O)N4CCN(C5COC5)CC4)c4ccc(Cl)cc34)cc2)c1C [Compound 191] |  | 
0.47 µM | CCCC(=O)c1cnn(-c2ccc(NC(=O)c3cn(CC(=O)N4CCN(Cc5ccc(Cl)cc5)CC4)c4ccc(Cl)cc34)cc2)c1C [Compound 167] |  | 
0.21 µM | CCCC(=O)c1cnn(-c2ccc(NC(=O)c3cn(CC(=O)N4CCN(C(C)C)CC4)c4ccc(C)cc34)cc2)c1C [Compound 124] |  | 
0.25 µM | CCCC(=O)c1cnn(-c2ccc(NC(=O)c3cn(CC(=O)N4CCN(C)C(C)(C)C4)c4ccc(Cl)cc34)cc2)c1C [Compound 186] |  | 

Further lines, the compound ahead of its results:

SMILES | IC50 (platelet aggregation [1]; [4]) | IC50 (platelet aggregation [1]; [6]) | also measured
CCCC(=O)c1cnn(-c2ccc(NC(=O)c3cn(CC(=O)N4CCN(CCOC)CC4)c4ccc(Cl)cc34)cc2)c1C [Compound 105, N-[4-(4-Butyryl-5-methyl-1H-pyrazol-1-yl)phenyl]-5-chloro-1-{2-[4-(2-methoxyethyl)piperazin-1-yl]-2-oxoethyl}-1H-indole-3-carboxamide hydrochloride] |  |  | IC50 (platelet aggregation [1]; Platelet, rat blood, in vitro, read-out: Inhibition of platelet aggregation in vitro (rat blood)): 0.32 µM; inhibition at 10 mg/kg (platelet aggregation [2]; Platelet, 2 h, rat, gavage (oral), 10 mg/kg, two hours before taking the sample): 67.9%
CCCC(=O)c1cnn(-c2ccc(NC(=O)c3cn(CC(=O)N4CCN(CCOC)CC4)c4ccc(Cl)cc34)nn2)c1C [Compound 29, N-[6-(4-Butyryl-5-methyl-1H-pyrazol-1-yl)pyridazin-3-yl]-5-chloro-1-{2-[4-(2-methoxyethyl)piperazin-1-yl]-2-oxoethyl}-1H-indole-3-carboxamide hydrochloride] |  |  | IC50 (platelet aggregation [1]; [3]): 0.08 µM; inhibition at 1 mg/kg (platelet aggregation [2]; Rattus norvegicus, Platelet, iv, 2 h, read-out: Inhibition of platelet aggregation ex vivo (rat blood) in %, Infusion (Intravenous) 1 mg/kg): 76%; inhibition at 10 mg/kg (platelet aggregation [2]; Rattus norvegicus, Platelet, po, 2 h): 86.3%
CCCC(=O)c1cnn(-c2ccc(NC(=O)c3cn(CC(=O)N4CCN(C)CC4)c4ccc(Cl)cc34)c(C#N)c2)c1C [Compound 219] | 0.54 µM |  | Inhibition of platelet aggregation ex vivo (rat blood) in %, Gavage (oral) 10 mg/kg (platelet aggregation [2]; [5]): 65.1%
CCCC(=O)c1cnn(-c2ccc(NC(=O)c3cn(CC(=O)N4CCN(Cc5cc(C)on5)CC4)c4ccc(Cl)cc34)cc2)c1C.Cl [Compound 166] |  |  | Inhibition of platelet aggregation ex vivo (rat blood) in %, Gavage (oral) 10 mg/kg (platelet aggregation [2]; [5]): 72.0%
CCCC(=O)c1cnn(-c2ccc(NC(=O)c3cn(CC(=O)N4CC(O)CC4C(=O)NC4CCC4)c4ccc(Cl)cc34)cc2)c1C (stereo not shown) [Compound 171] | 0.57 µM |  | 
CCCC(=O)c1cnn(-c2ccc(NC(=O)c3cn(CC(=O)N4CCN(CC(=O)OCC)CC4)c4ccc(Cl)cc34)nn2)c1C [Compound 34] |  | 0.09 µM | 
CCCC(=O)c1cnn(-c2ccc(NC(=O)c3cn(CC(=O)N4CCN(CC(=O)NC(C)C)CC4)c4ccc(Cl)cc34)nn2)c1C [Compound 39] |  | 0.04 µM | 
CCCC(=O)c1cnn(-c2ccc(NC(=O)c3cn(CC(=O)N4CCN(CCO)CC4)c4ccc(Cl)cc34)nn2)c1C [Compound 95] |  | 0.05 µM | 
CCCC(=O)c1cnn(-c2ccc(NC(=O)c3cn(CC(=O)O)c4ccc(-c5ccccc5)cc34)cc2)c1C [Compound 15] |  | 25 µM | 
CCCC(=O)c1cnn(-c2ccc(NC(=O)c3cn(CC(=O)N4CCN5CCCC5C4C)c4ccc(Cl)cc34)nn2)c1C (stereo not shown) [Compound 84] |  | 0.09 µM | 
CCCC(=O)c1cnn(-c2ccc(NC(=O)c3cn(CC(=O)N4CCN(C)CC4)c4ccc(Cl)cc34)c(C(N)=O)c2)c1C [Compound 220] | 0.22 µM |  | 
CCCC(=O)c1cnn(-c2ccc(NC(=O)c3cn(CC(=O)NCCn4ccnc4)c4ccc(C)cc34)cc2)c1C [Compound 134] | 0.95 µM |  | 
CCCC(=O)c1cnn(-c2ccc(NC(=O)c3cn(CC(=O)N4CCNCC4)c4ccc(C)cc34)cc2)c1C [Compound 243] |  | 0.54 µM | 
CCCC(=O)c1cnn(-c2ccc(NC(=O)c3cn(CC(=O)N4CCN(CC)CC4)c4ccc(Cl)cc34)nn2)c1C [Compound 47] |  | 0.06 µM | 
CCCC(=O)c1cnn(-c2ccc(NC(=O)c3cn(CC(=O)N4Cc5ccncc5C4)c4ccc(Cl)cc34)nn2)c1C [Compound 76] |  | 0.06 µM | 
CCCC(=O)c1cnn(-c2ccc(NC(=O)c3cn(CC(=O)N(C)C)c4ccc(N(C)C)cc34)cc2)c1C [Compound 178] | 0.5 µM |  | 
CCCC(=O)c1cnn(-c2ccc(NC(=O)c3cn(CC(=O)N4CCNCC4)c4ccc(Cl)cc34)cc2)c1C [Compound 256] |  | 0.23 µM | 

SMILES | IC50 (platelet aggregation [1]; [4]) | IC50 (platelet aggregation [1]; [6]) | also measured
CCCC(=O)c1cnn(-c2ccc(NC(=O)c3cn(CC(=O)N4CCCC4)c4ccc(Cl)cc34)nn2)c1C [Compound 40] |  | 0.1 µM | 
CCCCN1CCN(C(=O)Cn2cc(C(=O)Nc3ccc(-n4ncc(C(=O)CCC)c4C)nn3)c3cc(Cl)ccc32)CC1 [Compound 55] |  | 0.16 µM | 
CCCC(=O)c1cnn(-c2ccc(NC(=O)c3cn(CC(=O)NCCO)c4ccc(Cl)cc34)nn2)c1C [Compound 33] |  | 0.08 µM | 
CCCC(=O)c1cnn(-c2ccc(NC(=O)c3cn(CC(=O)N4CCNC(CO)C4)c4ccc(C)cc34)cc2)c1C (stereo not shown) [Compound 249] |  | 0.24 µM | 
CCCC(=O)c1cnn(-c2ccc(NC(=O)c3cn(CC(=O)N(C)C4CCS(=O)(=O)C4)c4ccc(Cl)cc34)cc2)c1C (stereo not shown) [Compound 169] | 0.4 µM |  | 
CCCC(=O)c1cnn(-c2ccc(NC(=O)c3cn(CC(=O)N4CCN(CC(=O)OC)CC4)c4ccc(Cl)cc34)nn2)c1C [Compound 87] |  | 0.04 µM | 
CCCC(=O)c1cnn(-c2ccc(NC(=O)c3cn(CC(=O)N4CCN(CCN(C)C)CC4)c4ccc(Cl)cc34)nn2)c1C [Compound 98] |  | 0.07 µM | 
CCCC(=O)c1cnn(-c2ccc(NC(=O)c3cn(CC(=O)N4CCN(C(=O)N(C)C)CC4)c4ccc(Cl)cc34)nn2)c1C [Compound 69] |  | 0.1 µM | 
CCCC(=O)c1cnn(-c2ccc(NC(=O)c3cn(CC(=O)O)c4ccc(C(F)(F)F)cc34)cc2)c1C [Compound 13] |  | 4.6 µM | 
CCCC(=O)c1cnn(-c2ccc(NC(=O)c3cn(CC(=O)O)c4ccc(Cl)cc34)cc2)c1C [Compound 3, (3-{[4-(4-butyryl-5-methyl-1H-pyrazol-1-yl)phenyl]carbamoyl}-5-chloro-1H-indol-1-yl)acetic acid] |  |  | IC50 (platelet aggregation [1]; 0.1 h, rat platelet-rich plasma, ADP-induced aggregation, area under the curve of absorbance for 6 minutes, read-out: Inhibition of platelet aggregation in vitro (rat blood)): 2.8 µM
CCCC(=O)c1cnn(-c2ccc(NC(=O)c3cn(CC(=O)N4CCN(C(C)=O)CC4)c4ccc(Cl)cc34)nn2)c1C [Compound 42] |  | 0.15 µM | 
CCCC(=O)c1cnn(-c2ccc(NC(=O)c3cn(CC(=O)N4CCN(CCOC(F)(F)F)CC4)c4ccc(Cl)cc34)nn2)c1C [Compound 30, N-[6-(4-Butyryl-5-methyl-1H-pyrazol-1-yl)pyridazin-3-yl]-5-chloro-1-(2-oxo-2-{4-[2-(trifluoromethoxy)ethyl]piperazin-1-yl}ethyl)-1H-indole-3-carboxamide hydrochloride] |  |  | IC50 (platelet aggregation [1]; [3]): 0.1 µM
CCCC(=O)c1cnn(-c2ccc(NC(=O)c3cn(CC(=O)N4CCn5cnnc5C4)c4ccc(Cl)cc34)nn2)c1C [Compound 70] |  | 0.11 µM | 
CCCC(=O)c1cnn(-c2ccc(NC(=O)c3cn(CC(=O)N4CCN(C)CC4)c4cc(C)c(Br)cc34)cc2)c1C [Compound 112] | 0.36 µM |  | 
CCCC(=O)c1cnn(-c2ccc(NC(=O)c3cn(CC(=O)N4CCN(Cc5ccncc5)CC4)c4ccc(Cl)cc34)nn2)c1C [Compound 102] |  | 0.03 µM | 
CCCC(=O)c1cnn(-c2ccc(NC(=O)c3cn(CC(=O)N4Cc5cccnc5C4)c4ccc(Cl)cc34)cc2)c1C [Compound 187] | 0.61 µM |  | 
CCCC(=O)c1cnn(-c2ccc(NC(=O)c3cn(CC(=O)NC(C)c4nn[nH]n4)c4ccc(Cl)cc34)nn2)c1C (stereo not shown) [Compound 78] |  | 0.28 µM | 
